Source: PubChem BioAssay AID1919013 (Molecular Pharmacology Branch, DTP, NCI, 2023)

Test system: LG0703-F498-PDC complex spheroid growth
Assay: Anticancer human tumor LG0703-F498-PDC patient-derived lung adenocarcinoma cell line growth inhibition [AhR]
Conditions: for IC50: curve of first compound; for viability, T/C: stronger effect = lower value
Procedure, shortened: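 Complex tumor spheroids co-cultured with HUVEC and human MSC stroma; AhR antagonists tested in combination with standard-of-care and investigational agents. Top concentration at or near clinical Cmax (else 10 microM), half-log dilutions; growth expressed as percent test/control.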

[1] = second compound 0.1 µM, first compound 0.0316 µM
[2] = second compound 0.1 µM, first compound 0.1 µM
[3] = second compound 0.1 µM, first compound 0.316 µM
[4] = second compound 0.1 µM, first compound 1 µM
[5] = second compound 0.1 µM, first compound 3.16 µM
[6] = second compound 0.1 µM, first compound 10 µM
[7] = second compound 0.316 µM, first compound 0.0316 µM
[8] = second compound 0.316 µM, first compound 0.1 µM
[9] = second compound 0.316 µM, first compound 0.316 µM
[10] = second compound 0.316 µM, first compound 1 µM
[11] = second compound 0.316 µM, first compound 3.16 µM
[12] = second compound 0.316 µM, first compound 10 µM
[13] = second compound 1 µM, first compound 0.0316 µM
[14] = second compound 1 µM, first compound 0.1 µM
[15] = second compound 1 µM, first compound 0.316 µM
[16] = second compound 1 µM, first compound 1 µM
[17] = second compound 1 µM, first compound 3.16 µM
[18] = second compound 1 µM, first compound 10 µM
[19] = second compound 3.16 µM, first compound 0.0316 µM
[20] = second compound 3.16 µM, first compound 0.1 µM
[21] = second compound 3.16 µM, first compound 0.316 µM
[22] = second compound 3.16 µM, first compound 1 µM
[23] = second compound 3.16 µM, first compound 3.16 µM
[24] = second compound 3.16 µM, first compound 10 µM
[25] = second compound 10 µM, first compound 0.0316 µM
[26] = second compound 10 µM, first compound 0.1 µM
[27] = second compound 10 µM, first compound 0.316 µM
[28] = second compound 10 µM, first compound 1 µM
[29] = second compound 10 µM, first compound 3.16 µM
[30] = second compound 10 µM, first compound 10 µM
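Also: luminescence taken as a proxy for viable cell amount.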
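For viability, T/C in this document: percent of DMSO vehicle control where 100% means growth equal to vehicle.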

SMILES	IC50 (second compound 0.1 µM) [nM]	IC50 (second compound 0.316 µM) [nM]	IC50 (second compound 1 µM) [nM]	IC50 (second compound 3.16 µM) [nM]	IC50 (second compound 10 µM) [nM]	viability, T/C [1] [%]	viability, T/C [2] [%]	viability, T/C [3] [%]	viability, T/C [4] [%]	viability, T/C [7] [%]	viability, T/C [8] [%]	viability, T/C [9] [%]	viability, T/C [10] [%]	viability, T/C [13] [%]	viability, T/C [14] [%]	viability, T/C [15] [%]	viability, T/C [16] [%]	viability, T/C [19] [%]	viability, T/C [20] [%]	viability, T/C [21] [%]	also measured
CC(C)c1c(-c2ccccc2)nc2c(C#N)c[nH]n2c1=O + Cc1ccccc1N=Nc1ccc(NC(=O)c2ccnn2C)c(C)c1	> 10000	> 10000	> 10000	> 10000	> 10000	95.3	88.1	94.9	98.5	97.4	85.6	85.5	78.8	88.1	90.4	94.7	89.5	78	79	84.5	viability, T/C [5]: 112%; viability, T/C [6]: 102%; viability, T/C [11]: 95.9%; viability, T/C [12]: 92.1%; viability, T/C [17]: 87.6%; viability, T/C [18]: 84.1%; viability, T/C [22]: 77.6%; viability, T/C [23]: 81.5%; viability, T/C [24]: 86.8%; viability, T/C [25]: 86.3%; viability, T/C [26]: 75.6%; viability, T/C [27]: 67.9%; viability, T/C [28]: 82.8%; viability, T/C [29]: 81.7%; viability, T/C [30]: 79.3%
CC1COCCN1c1cc(-c2ccnn2C)c2ccnc(-c3ccn[nH]3)c2n1 (stereo not given) + Cc1ccccc1N=Nc1ccc(NC(=O)c2ccnn2C)c(C)c1	514	678	306	406	592	82.4	72	56.3	41.5	90.6	73.1	58.4	45.6	91.6	73.6	50	38.4	69.7	78	49.3	viability, T/C (second compound 0.1 µM, first compound 0.00316 µM): 88.3%; viability, T/C (second compound 0.1 µM, first compound 0.01 µM): 88.5%; viability, T/C (second compound 0.316 µM, first compound 0.00316 µM): 98%; viability, T/C (second compound 0.316 µM, first compound 0.01 µM): 110%; viability, T/C (second compound 1 µM, first compound 0.00316 µM): 94.4%; viability, T/C (second compound 1 µM, first compound 0.01 µM): 79.8%; viability, T/C (second compound 3.16 µM, first compound 0.00316 µM): 92.8%; viability, T/C (second compound 3.16 µM, first compound 0.01 µM): 79.7%; viability, T/C [22]: 37%; viability, T/C (second compound 10 µM, first compound 0.00316 µM): 86.6%; viability, T/C (second compound 10 µM, first compound 0.01 µM): 81.7%; viability, T/C [25]: 97.2%; viability, T/C [26]: 72.9%; viability, T/C [27]: 59.8%; viability, T/C [28]: 42.8%
COc1ccc([C@@H](O)c2cc(-c3ncnc4cc(N5CCOCC5)ccc34)c(F)cc2Cl)nn1 + Cc1ccccc1N=Nc1ccc(NC(=O)c2ccnn2C)c(C)c1	4590	2870	3920	2550	1900	93.9	93.8	88.3	75.7	83.3	101	91.1	75	87.3	99.2	86	79	89.8	83.9	78	viability, T/C [5]: 61.2%; viability, T/C [6]: 29%; viability, T/C [11]: 48.5%; viability, T/C [12]: 28.1%; viability, T/C [17]: 55%; viability, T/C [18]: 28.5%; viability, T/C [22]: 68.1%; viability, T/C [23]: 45.2%; viability, T/C [24]: 23.8%; viability, T/C [25]: 75.5%; viability, T/C [26]: 93.6%; viability, T/C [27]: 80.8%; viability, T/C [28]: 57.9%; viability, T/C [29]: 42.5%; viability, T/C [30]: 15.6%
